Assay results: PubChem BioAssay (NCI)
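Interpolation was linear, between the two tested concentrations surrounding the appropriate level; five concentrations were tested over 48 hours in 96-well plates. TGI is the concentration that stops growth completely.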 *1 amine or outer side, *2 acyl side, *3 side chain or, on linkers, in order; H or OH if unused. Where a SMILES comes first, the peptide text is derived from it. Bridges are numbered along the chain shown (N, C = ends). [ ]: non-standard residue; d: D form. The star is where a group is joined. X38 = CC[C@H](C)[C@@H](N[*:1])[C@@H](O)CC(=O)[*:2]; NMeY = CN[C@@H](Cc1ccc(O)cc1)C(=O)O; dNMeL = CN[C@H](CC(C)C)C(=O)O; Hiv = CC(C)[C@H](O)C(=O)O; Pyruvoyl = CC(=O)C(=O)*

Legend:
Experiment in all cases: DTP human tumour cell line panel, 48 h
OVCAR-3 ovarian = test system: OVCAR-3 ovarian
UACC-62 melanoma = test system: UACC-62 melanoma
SNB-19 CNS = test system: SNB-19 CNS
MOLT-4 leukemia = test system: MOLT-4 leukemia
LOX IMVI melanoma = test system: LOX IMVI melanoma
NCI-H460 lung = test system: NCI-H460 lung
NCI-H23 lung = test system: NCI-H23 lung
HS 578T breast = test system: HS 578T breast
NCI-H226 lung = test system: NCI-H226 lung

Row | Compound | TGI (OVCAR-3 ovarian) [µM] | TGI (UACC-62 melanoma) [µM] | TGI (SNB-19 CNS) [µM] | TGI (MOLT-4 leukemia) [µM] | TGI (LOX IMVI melanoma) [µM] | TGI (NCI-H460 lung) [µM] | TGI (NCI-H23 lung) [µM] | TGI (HS 578T breast) [µM] | TGI (NCI-H226 lung) [µM]
1 | CC1=C(C(=O)Nc2cccc3c2C(=O)NC3=O)CC(C(=O)Nc2cccc3c2C(=O)NC3=O)=C(C)N1 | > 100 | > 100 | > 100 | > 100 | > 100 | > 100 | > 100 | > 100 | 
2 | NCCCNCCCNCCCN | > 100 | > 100 | > 100 | 42.4 | > 100 |  | > 100 |  | > 100
3 | CC[C@H](C)[C@H]1NC(=O)[C@@H](NC(=O)[C@@H](CC(C)C)N(C)C(=O)[C@@H]2CCCN2C(=O)C(C)=O)[C@@H](C)OC(=O)[C@H](Cc2ccc(OC)cc2)N(C)C(=O)[C@@H]2CCCN2C(=O)[C@H](CC(C)C)NC(=O)[C@H](C(C)C)OC(=O)C[C@@H]1O (Pyruvoyl-P[dNMeL]T[X38][Hiv]LP[NMeY](Me); ester 3-C) | 0.0532 | 0.0299 | 0.721 | 0.0373 | 0.0481 | 0.0321 | 0.0421 | 0.283 | 0.0331
4 | O=C(O)c1c[nH]c2c(Sc3ccccc3)nccc2c1=O | > 100 | > 100 | > 100 | > 100 | > 100 | > 100 | > 100 | > 100 | > 100
5 | Cc1ccc(NCC2CC/C(=C\c3ccc(Cl)cc3)C2=O)cc1 (stereo not drawn) | 29.1 | 58.6 | > 55.7 | > 32.4 | 19 | > 62.4 | 45.7 | > 100 | > 100
6 | Cc1nn2c(=O)c([N+](=O)[O-])c(/C=C/c3ccccc3)nc2s1 | 26.5 | 26.9 | > 90.8 | 20.8 | 3.98 | 29 | > 100 | > 100 | 21.1
7 | COc1ccc(OC)c2sc(N3C(=O)/C(=C/Cc4ccco4)N=C3c3ccccc3)nc12 | > 100 | 51.1 | > 100 | 70.9 | 70 | > 100 |  | > 100 | 
8 | C=C(c1ccccc1)C1ON(C)CCc2cc(OC)c(OC)cc21 (stereo not drawn) | > 100 | > 100 | > 100 | > 100 | > 100 | > 100 | > 100 | > 100 | > 100
9 | NCCCCNCCCN1CC1 | 8.98 | 91.1 | 22.5 |  | 3.46 | > 100 | 16.2 | 2.14 | > 31.4
10 | Oc1ccccc1/C=N/Nc1nnc2c3ccccc3c3ccccc3c2n1 | 44.2 | > 100 | > 100 | > 100 | > 100 | > 100 | > 100 | > 100 | > 100
11 | c1csc(-c2cscc2-c2ccsc2)c1 | 56.1 | > 100 | > 100 | > 100 | > 100 | > 100 | > 100 | > 31.6 | > 78.9
12 | CSC1=N[C@H](c2ccccc2)CS1 | > 100 | > 100 | > 100 | > 100 |  | > 100 | > 100 | > 100 | 
13 | C[C@@]12C=CC3C/C(=N\C(N)=S)C=C(CCCC4OCCO4)[C@]3(CC1)C2 (stereo partly drawn) | 39.3 | 30.4 | > 100 | 59.2 | 31.1 | 32 | 58.5 | 72.5 | 55
14 | COc1cc(S(=O)(=O)Nc2ccc(-c3csc(N4C(=O)CSC4c4cccs4)n3)cc2)ccc1Cl (stereo not drawn) | > 100 |  | > 100 | > 100 | 36.6 | 91 | > 100 | 78.3 | 81.8
15 | Cc1c2cnccc2c(C)c2c1[nH]c1ccc(O)cc12 | 3.91 | > 10 | > 10 | > 10 | 1.71 | 2.63 | 8.25 | > 10 | > 10
16 | COc1ccc(C2c3cc4c(cc3C(O)C3CCC(=O)N23)OCO4)cc1 (stereo not drawn) | > 100 | > 100 | > 100 | > 100 | > 100 | > 100 | > 100 | > 100 | > 100
17 | Cc1occc1C(=S)Nc1ccc(Cl)c(C(=O)OCC(F)(F)F)c1 | 81.4 | 32 | 43.9 | 55.8 | 34.7 | 48.1 | 51.4 | > 100 | 35.9
18 | C[C@H]1[C@H](C)N(Cc2ccccc2)P(=O)(C(O)/C=C/c2ccccc2)N1Cc1ccccc1 (stereo partly drawn) |  | 8.13 | > 25 | > 25 | 14.5 | 10.2 | > 25 | 12.3 | 16.9
19 | O=C1CC(=O)NC(=NN2C(=O)CSC2c2ccc(Cl)c(Cl)c2)N1 (stereo not drawn) | > 100 | > 100 |  | 54.3 |  | > 100 | > 100 | > 100 | > 100
20 | CC1=C/C(=N\OCC(=O)O)CC(c2ccc(C(C)C)cc2)C1 (stereo not drawn) |  | > 100 |  | 68.1 |  | > 100 |  | > 100 | 
21 | CC1C2CC(CC(=O)N2)C1(C)C (stereo not drawn) | > 100 | > 100 | > 100 |  |  | > 100 | > 100 | > 100 | > 100
22 | COc1ccc(/C=C2/C(C)=NN(c3cccc(Cl)c3)/C2=N/c2nc3ccccc3s2)cc1 | 48.8 |  |  | 63.8 | 33.4 | 43.2 | 34.6 | 66.1 | 56.4
23 | CC1=NC(=O)C(C)(c2ccccc2)N1CCc1ccccc1 (stereo not drawn) | > 100 | > 100 | > 100 | 94.7 | > 100 |  | > 100 | > 100 | > 100
24 | O=C1CSC2(CC(/C=C/c3ccccc3O)=NN2c2cccc(S(=O)(=O)O)c2)N1c1nc2ccccc2s1 (stereo not drawn) |  | > 100 | > 100 | 82.9 | 39.3 | > 100 | > 100 | > 100 | > 100
